In data set [1] the target is T1, Cytochrome P450 1B1 (Homo sapiens, UniProt Q16678).
T1 sequence (Q16678 whole entry): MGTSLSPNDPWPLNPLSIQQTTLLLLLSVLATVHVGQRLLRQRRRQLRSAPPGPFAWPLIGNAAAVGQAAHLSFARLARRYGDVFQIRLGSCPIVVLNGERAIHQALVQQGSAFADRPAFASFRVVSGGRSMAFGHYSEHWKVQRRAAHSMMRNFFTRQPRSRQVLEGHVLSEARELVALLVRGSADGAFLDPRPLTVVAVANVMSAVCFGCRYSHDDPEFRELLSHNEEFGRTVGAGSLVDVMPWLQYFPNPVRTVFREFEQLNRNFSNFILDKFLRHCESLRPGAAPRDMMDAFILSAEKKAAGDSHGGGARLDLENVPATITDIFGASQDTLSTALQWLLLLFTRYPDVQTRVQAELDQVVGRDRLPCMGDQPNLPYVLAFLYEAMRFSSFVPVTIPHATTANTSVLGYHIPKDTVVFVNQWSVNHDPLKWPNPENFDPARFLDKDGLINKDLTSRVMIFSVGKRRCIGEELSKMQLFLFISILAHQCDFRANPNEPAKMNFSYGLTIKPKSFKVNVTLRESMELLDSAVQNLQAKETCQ
The experiment in a line: Inhibition of human CYP1B1 using 7-ethyl-O-resorufin as substrate incubated for 30 mins in presence of NADPH by EROD assay.

For a further data set, the system named is A549. As to the kind of experiment: Cytotoxicity against human A549 cells assessed as reduction in cell viability after 72 hrs by MTT assay. Format: functional, cell-based. The conditions noted are these: dose 5-10 µM.
The subject of a further data set is A549/Taxol. The experiment in a line: Cytotoxicity against human A549/Taxol cells assessed as reduction in cell viability after 72 hrs by MTT assay. Format: functional, cell-based. The following applies: dose 5-10 µM.
The target of data set [2] is T1, Cytochrome P450 1B1. As to the kind of experiment: Inhibition of human CYP1B1 at 5 uM using 7-ethyl-O-resorufin as substrate incubated for 30 mins in presence of NADPH by EROD assay. The conditions noted are these: 0.5 h.

Molecules are shown by their SMILES.

Take `COc1ccccc1OCCNCC(O)COc1cccc2[nH]c3ccccc3c12` (stereo not given) [CARVEDILOL]: the IC50 on Cytochrome P450 1B1 [1] amounted to 1.1 µM. Besides, the Activity result in the data set on A549 and in the data set with A549/Taxol was “Dose-dependent effect” each time. Moreover, at Cytochrome P450 1B1 [2], the “inhibition (INH)” value is reported as “Active”.
In the case of `C#C[C@]1(O)CC[C@H]2[C@@H]3CCc4cc(O)ccc4[C@H]3CC[C@@]21C` [ETHINYL ESTRADIOL], the “inhibition (INH)” value on Cytochrome P450 1B1 [2] is reported as “Not Active”.
As to `CCN(CCO)CCCC(C)Nc1ccnc2cc(Cl)ccc12.O=S(=O)(O)O` (stereo not given) [HYDROXYCHLOROQUINE SULFATE], the “inhibition (INH)” value on Cytochrome P450 1B1 [2] was “Not Active”.
Take `CCc1cc2c(cc1CC)CC(NC[C@H](O)c1ccc(O)c3[nH]c(=O)ccc13)C2` [INDACATEROL]: the IC50 on Cytochrome P450 1B1 [1] came out at 59.2 µM. At Cytochrome P450 1B1 [2], the “inhibition (INH)” value is recorded as “Active”.
Regarding `CC(CCc1ccccc1)NCC(O)c1ccc(O)c(C(N)=O)c1` (stereo not given) [LABETALOL], on Cytochrome P450 1B1 [2], the “inhibition (INH)” value is “Not Active”.
For the molecule `C=C[C@H]1C[N@@]2CC[C@H]1C[C@@H]2[C@@H](O)c1ccnc2ccc(OC)cc12` [QUINIDINE], on Cytochrome P450 1B1 [2], the “inhibition (INH)” value was “Not Active”.

The record behind these values is ChEMBL document CHEMBL4765280, “Carvedilol serves as a novel CYP1B1 inhibitor, a systematic drug repurposing approach through structure-based virtual screening and experimental verification” (Eur J Med Chem, 2020).
